Results reported in patent US20250326771A1, “PIPERAZINE DERIVATIVES USEFUL IN HIV THERAPY” (VIIV HEALTHCARE COMPANY, priority 2022, published 2025).
Where two headings read alike, the source gives them in different places.

Columns and labels:
[1] = system: Jurkat HIV-luciferase clones; test: Jurkat latency reversal assay; format: cell-based; details: Homo sapiens, 48 h; Jurkat latency reversal assay potency; read-out: Jurkat pEC50 (converted)
Method in brief: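 Three pooled Jurkat reporter clones, each with one or two integrated HIV-luciferase proviruses, 5,000 cells/well; duplicate 14-point titrations starting at 10 μM; 48 h, 37° C, then Steady-Glo luminescence; four-parameter logistic analysis yields EC50 and percent maximal activation against DMSO vehicle.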

[2] = biological target: XIAP-BIR2 (Homo sapiens (Human), UniProt P98170); test: BIR binding assay (FRET competition), XIAP BIR2
Method in brief: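 Compounds in a 15-point, 3-fold series competed with an AlexaFluor647 SMAC peptide (AVPIAQKSE, 200 nM) for 200 nM His-tagged XIAP-BIR2 over 60 min in pH 7.4 HEPES/CHAPS/DTT buffer. Eu-W1024 (2 nM) was then added for 30 min. IC50 and pIC50 were derived from the 615 nm/665 nm emission ratio by variable-slope fit.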

[3] = biological target: XIAP-BIR3 (Homo sapiens (Human), UniProt P98170); test: BIR binding assay (FRET competition), XIAP BIR3; details: for XIAP BIR3 vs BIR2 separation window: fold separation (FS) for XIAP
Method in brief: (§1)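 His-tagged domains (50 nM cIAP1-BIR3, 325 nM cIAP2-BIR2, 325 nM cIAP1-BIR2, 100 nM XIAP-BIR3) compete with compounds for a 200 nM AlexaFluor647-labelled SMAC/DIABLO peptide in HEPES buffer, pH 7.4, for 60 min. Then 2 nM Eu-W1024 is added for 30 min. The 615/665 nm ratio is fit by four-parameter fit to give IC50.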

[4] = biological target: cIAP2-BIR3 (Homo sapiens (Human), UniProt Q13489); test: BIR binding assay (FRET competition), cIAP2 BIR3; details: for cIAP2 BIR3 vs BIR2 separation window: fold separation (FS) for cIAP2
[5] = biological target: cIAP2-BIR2 (Homo sapiens (Human), UniProt Q13489); test: BIR binding assay (FRET competition), cIAP2 BIR2
Method in brief: as §1

[6] = biological target: cIAP1-BIR3 (Homo sapiens (Human), UniProt Q13490); test: BIR binding assay (FRET competition), cIAP1 BIR3; details: for cIAP1 BIR3 vs BIR2 separation window: fold separation (FS) for cIAP1
Method in brief: as §1

[7] = biological target: cIAP1-BIR2 (Homo sapiens (Human), UniProt Q13490); test: BIR binding assay (FRET competition), cIAP1 BIR2
Method in brief: as §1

[8] = FRET competition binding, read-out: XIAP BIR2 (pIC50) (converted)

XIAP-BIR2, sequence (P98170 124-240): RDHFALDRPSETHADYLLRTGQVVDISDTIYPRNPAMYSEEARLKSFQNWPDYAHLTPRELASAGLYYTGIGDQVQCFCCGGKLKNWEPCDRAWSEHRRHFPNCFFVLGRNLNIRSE
cIAP1-BIR3, sequence (Q13490 253-363): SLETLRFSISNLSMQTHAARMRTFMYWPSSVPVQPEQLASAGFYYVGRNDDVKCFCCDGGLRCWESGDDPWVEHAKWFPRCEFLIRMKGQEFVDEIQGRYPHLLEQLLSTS
cIAP2-BIR3, sequence (Q13489 238-349): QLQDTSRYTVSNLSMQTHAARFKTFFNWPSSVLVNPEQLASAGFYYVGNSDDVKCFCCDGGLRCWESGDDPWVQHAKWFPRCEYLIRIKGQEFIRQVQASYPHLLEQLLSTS
cIAP1-BIR2, sequence (Q13490 173-257): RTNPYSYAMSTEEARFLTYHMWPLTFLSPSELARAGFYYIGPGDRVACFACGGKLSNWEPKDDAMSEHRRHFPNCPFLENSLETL
XIAP-BIR3, sequence (P98170 241-356): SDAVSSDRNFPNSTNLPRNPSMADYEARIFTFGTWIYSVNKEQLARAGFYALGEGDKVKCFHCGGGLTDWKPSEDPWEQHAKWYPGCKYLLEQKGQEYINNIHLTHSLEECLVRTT
cIAP2-BIR2, sequence (Q13489 158-242): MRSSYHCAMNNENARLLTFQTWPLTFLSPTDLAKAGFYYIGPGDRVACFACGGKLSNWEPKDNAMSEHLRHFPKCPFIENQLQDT

Row | Structure (SMILES) | EC50 [1] [µM] | IC50 [2, 8] [µM] | IC50 [3] [µM] | XIAP BIR3 vs BIR2 separation window [3] | IC50 [4] [µM] | cIAP2 BIR3 vs BIR2 separation window [4] | IC50 [5] [µM] | IC50 [6] [µM] | cIAP1 BIR3 vs BIR2 separation window [6] | IC50 [7] [µM] | IC50 [2] [µM]
1 | C[C@@H]1CN(CC(=O)N2CC(C)(C)c3[nH]c(=O)c(Cc4ccc(F)cc4)cc32)[C@@H](CN2CCO[C@H](COc3ccc(OC[C@@H]4CN(C[C@H]5CN[C@H](C)CN5CC(=O)N5CC(C)(C)c6[nH]c(=O)c(Cc7ccc(F)cc7)cc65)CCO4)cc3)C2)CN1 [Example 70, 1,1′-(2,2′-((3R,3′R,6R,6′R)-(((2S,2'S)-((1,4-phenylenebis(oxy))bis(methylene))bis(morpholine-2,4-diyl))bis(methylene))bis(3-methylpiperazine-6,1-diyl))bis(acetyl))bis(6-(4-fluorobenzyl)-3,3-dimethyl-1,2,3,4-tetrahydro-5H-pyrrolo[3,2-b]pyridin-5-one)] | 0.00049 to 0.0126 | 10 to 51.3 | 0.0158 to 0.0316 | ++++ (FS>10,000) | 0.00794 to 0.0158 | +++ (10,000>FS>1,000) | 1 to 3.16 | 0.0158 to 0.0316 | +++ (10,000>FS>1,000) | 1 to 3.16 | –
2 | C[C@@H]1CN(CC(=O)N2CC(C)(C)c3[nH]c(=O)c(Cc4ccc(F)cc4)cc32)[C@@H](CN2CCO[C@H](COc3ccccc3OC[C@@H]3CN(C[C@H]4CN[C@H](C)CN4CC(=O)N4CC(C)(C)c5[nH]c(=O)c(Cc6ccc(F)cc6)cc54)CCO3)C2)CN1 [Example 71, 1,1′-(2,2′-((3R,3′R,6R,6′R)-(((2S,2'S)-((1,2-phenylenebis(oxy))bis(methylene))bis(morpholine-2,4-diyl))bis(methylene))bis(3-methylpiperazine-6,1-diyl))bis(acetyl))bis(6-(4-fluorobenzyl)-3,3-dimethyl-1,2,3,4-tetrahydro-5H-pyrrolo[3,2-b]pyridin-5-one)] | 0.0631 to 0.316 | 10 to 51.3 | 0.0158 to 0.0316 | ++++ (FS>10,000) | 0.00794 to 0.0158 | +++ (10,000>FS>1,000) | 1 to 3.16 | 0.00794 to 0.0158 | ++ (1,000>FS>100) | 1 to 3.16 | –
3 | C[C@@H]1CN(CC(=O)N2CC(C)(C)c3[nH]c(=O)c(Cc4ccc(F)cc4)cc32)[C@@H](CN2CCO[C@H](COc3cccc(OC[C@@H]4CN(C[C@H]5CN[C@H](C)CN5CC(=O)N5CC(C)(C)c6[nH]c(=O)c(Cc7ccc(F)cc7)cc65)CCO4)c3F)C2)CN1 [Example 72, 1,1′-(2,2′-((3R,3′R,6R,6′R)-(((2S,2'S)-(((2-fluoro-1,3-phenylene)bis(oxy))bis(methylene))bis(morpholine-2,4-diyl))bis(methylene))bis(3-methylpiperazine-6,1-diyl))bis(acetyl))bis(6-(4-fluorobenzyl)-3,3-dimethyl-1,2,3,4-tetrahydro-5H-pyrrolo[3,2-b]pyridin-5-one)] | 0.00049 to 0.0126 | – | 0.0158 to 0.0316 | – | 0.0158 to 0.0316 | – | 1 to 3.16 | 0.00794 to 0.0158 | – | 0.0224 to 1 | 10 to 51.3
4 | C[C@@H]1CN(CC(=O)N2CC(C)(C)c3[nH]c(=O)c(Cc4ccc(F)cc4)cc32)[C@@H](CN2CCO[C@H](COc3ccc(F)c(OC[C@@H]4CN(C[C@H]5CN[C@H](C)CN5CC(=O)N5CC(C)(C)c6[nH]c(=O)c(Cc7ccc(F)cc7)cc65)CCO4)c3)C2)CN1 [Example 75, 1,1′-(2,2′-((3R,3′R,6R,6′R)-(((2S,2'S)-(((4-fluoro-1,3-phenylene)bis(oxy))bis(methylene))bis(morpholine-2,4-diyl))bis(methylene))bis(3-methylpiperazine-6,1-diyl))bis(acetyl))bis(6-(4-fluorobenzyl)-3,3-dimethyl-1,2,3,4-tetrahydro-5H-pyrrolo[3,2-b]pyridin-5-one)] | 0.00049 to 0.0126 | – | 0.00138 to 0.00794 | ++++ (FS>10,000) | 0.00138 to 0.00794 | +++ (10,000>FS>1,000) | 0.0224 to 1 | 0.00138 to 0.00794 | +++ (10,000>FS>1,000) | 0.0224 to 1 | 10 to 51.3
5 | C[C@@H]1CN(CC(=O)N2CC(C)(C)c3[nH]c(=O)c(Cc4ccc(F)cc4)cc32)[C@@H](CN2CCO[C@H](COc3ccc(C#N)c(OC[C@@H]4CN(C[C@H]5CN[C@H](C)CN5CC(=O)N5CC(C)(C)c6[nH]c(=O)c(Cc7ccc(F)cc7)cc65)CCO4)c3)C2)CN1 [Example 77, 2,4-bis(((S)-4-(((2R,5R)-1-(2-(6-(4-fluorobenzyl)-3,3-dimethyl-5-oxo-2,3,4,5-tetrahydro-1H-pyrrolo[3,2-b]pyridin-1-yl)-2-oxoethyl)-5-methylpiperazin-2-yl)methyl)morpholin-2-yl)methoxy)benzonitrile] | 0.0126 to 0.0631 | 10 to 51.3 | 0.0158 to 0.0316 | ++++ (FS>10,000) | 0.00138 to 0.00794 | +++ (10,000>FS>1,000) | 1 to 3.16 | 0.00138 to 0.00794 | +++ (10,000>FS>1,000) | 1 to 3.16 | –
6 | Cc1c(OC[C@@H]2CN(C[C@H]3CN[C@H](C)CN3CC(=O)N3CC(C)(C)c4[nH]c(=O)c(Cc5ccc(F)cc5)cc43)CCO2)cccc1OC[C@@H]1CN(C[C@H]2CN[C@H](C)CN2CC(=O)N2CC(C)(C)c3[nH]c(=O)c(Cc4ccc(F)cc4)cc32)CCO1 [Example 79, 1,1′-(2,2′-((3R,3′R,6R,6′R)-(((2S,2'S)-(((2-methyl-1,3-phenylene)bis(oxy))bis(methylene))bis(morpholine-2,4-diyl))bis(methylene))bis(3-methylpiperazine-6,1-diyl))bis(acetyl))bis(6-(4-fluorobenzyl)-3,3-dimethyl-1,2,3,4-tetrahydro-5H-pyrrolo[3,2-b]pyridin-5-one)] | 0.00049 to 0.0126 | 10 to 51.3 | 0.00794 to 0.0158 | ++++ (FS>10,000) | 0.00138 to 0.00794 | +++ (10,000>FS>1,000) | 3.16 to 10 | 0.00138 to 0.00794 | +++ (10,000>FS>1,000) | 1 to 3.16 | –
7 | C[C@@H]1CN(CC(=O)N2CC(C)(C)c3[nH]c(=O)c(Cc4ccc(F)cc4)cc32)[C@@H](CN2CCO[C@H](COCc3cccc(COC[C@@H]4CN(C[C@H]5CN[C@H](C)CN5CC(=O)N5CC(C)(C)c6[nH]c(=O)c(Cc7ccc(F)cc7)cc65)CCO4)c3)C2)CN1 [Example 80, 1,1′-(2,2′-((3R,3′R,6R,6′R)-(((2S,2'S)-(((1,3-phenylenebis(methylene))bis(oxy))bis(methylene))bis(morpholine-2,4-diyl))bis(methylene))bis(3-methylpiperazine-6,1-diyl))bis(acetyl))bis(6-(4-fluorobenzyl)-3,3-dimethyl-1,2,3,4-tetrahydro-5H-pyrrolo[3,2-b]pyridin-5-one)] | 0.00049 to 0.0126 | 10 to 51.3 | 0.00138 to 0.00794 | ++++ (FS>10,000) | 0.00138 to 0.00794 | +++ (10,000>FS>1,000) | 3.16 to 10 | 0.00138 to 0.00794 | +++ (10,000>FS>1,000) | 1 to 3.16 | –
8 | C[C@@H]1CN(CC(=O)N2CC(C)(C)c3[nH]c(=O)c(Cc4ccc(F)cc4)cc32)[C@@H](CN2CCO[C@H](COCc3cccc(COC[C@@H]4CN(C[C@H]5CN[C@H](C)CN5CC(=O)N5CC(C)(C)c6[nH]c(=O)c(Cc7ccc(F)cc7)cc65)CCO4)n3)C2)CN1 [Example 84, 1,1′-(2,2′-((3R,3′R,6R,6′R)-(((2S,2'S)-(((pyridine-2,6-diylbis(methylene))bis(oxy))bis(methylene))bis(morpholine-2,4-diyl))bis(methylene))bis(3-methylpiperazine-6,1-diyl))bis(acetyl))bis(6-(4-fluorobenzyl)-3,3-dimethyl-1,2,3,4-tetrahydro-5H-pyrrolo[3,2-b]pyridin-5-one)] | 0.00049 to 0.0126 | 10 to 51.3 | 0.0158 to 0.0316 | ++++ (FS>10,000) | 0.00794 to 0.0158 | +++ (10,000>FS>1,000) | 3.16 to 10 | 0.00794 to 0.0158 | +++ (10,000>FS>1,000) | 1 to 3.16 | –
